These results are taken from PMC7349874, “High Content Screening Using New U2OS Reporter Cell Models Identifies Harmol Hydrochloride as a Selective and Competitive Antagonist of the Androgen Receptor” (Cells, 2020).

Test [1] deals with T1, full-length wild-type AR (hAR) (Homo sapiens, UniProt P10275).
T1 sequence (P10275 1-920): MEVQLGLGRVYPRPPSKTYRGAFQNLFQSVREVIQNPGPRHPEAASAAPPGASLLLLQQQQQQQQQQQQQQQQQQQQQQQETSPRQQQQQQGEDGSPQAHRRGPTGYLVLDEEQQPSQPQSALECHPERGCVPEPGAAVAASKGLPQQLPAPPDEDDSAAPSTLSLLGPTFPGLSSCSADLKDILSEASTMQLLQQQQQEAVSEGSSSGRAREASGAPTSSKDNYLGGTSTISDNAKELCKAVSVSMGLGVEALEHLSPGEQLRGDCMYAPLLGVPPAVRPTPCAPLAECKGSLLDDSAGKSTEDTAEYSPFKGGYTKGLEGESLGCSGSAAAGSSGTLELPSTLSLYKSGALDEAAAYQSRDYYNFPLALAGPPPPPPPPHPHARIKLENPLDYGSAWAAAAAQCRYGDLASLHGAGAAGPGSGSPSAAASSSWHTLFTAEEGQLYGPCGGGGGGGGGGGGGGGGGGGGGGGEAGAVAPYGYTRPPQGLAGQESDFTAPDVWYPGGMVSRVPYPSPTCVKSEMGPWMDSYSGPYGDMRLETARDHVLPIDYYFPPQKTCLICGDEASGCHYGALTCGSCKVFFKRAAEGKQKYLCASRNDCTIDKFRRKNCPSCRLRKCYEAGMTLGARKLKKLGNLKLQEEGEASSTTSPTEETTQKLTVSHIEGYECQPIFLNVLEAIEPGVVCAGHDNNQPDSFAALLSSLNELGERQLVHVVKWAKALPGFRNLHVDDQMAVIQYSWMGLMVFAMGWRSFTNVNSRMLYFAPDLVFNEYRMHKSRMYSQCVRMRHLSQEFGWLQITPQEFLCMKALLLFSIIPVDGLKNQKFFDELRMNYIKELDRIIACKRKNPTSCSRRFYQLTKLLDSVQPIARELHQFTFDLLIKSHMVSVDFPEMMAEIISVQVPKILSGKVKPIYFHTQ
Kind of test: Transactivation (luciferase) assay in U2OS-hAR-ARE-Luc reporter cells, screen and validation. In kind it is cell-based. As to conditions: for Results of 1st screen on AR: 0.3, 1, 3, 10 µM, 16 h, hit = AR transcriptional activity changed by more than 50% dose-dependently, <20% effect in control cells. On the procedure: U2OS-hAR-ARE(Rad9)-Luc and U2OS-hARv7-ARE(PB)-Luc were then used to screen the Prestwick phytochemical library®, containing 320 natural compounds, at four concentrations (0.3, 1, 3, 10 µM) in duplicate.

Test [2] has as its system U2OS-ARE-Luc control cells. The experiment in a line: Luciferase activity in U2OS-ARE-Luc control cells. As to conditions: validation, up to 3 µM, 16 h.

Where a name gives a salt, the structure may show the parent alone. Read-outs that look alike come from different tables or passages of the source.

As for `COc1ccc(-c2cc(=O)c3c(O)cc(O)cc3o2)cc1` [Acacetin], in test [1], the “Results of 1st screen on AR” value is given as “No effect”.

With `C[C@@H]1O[C@@H](O[C@H]2C(=O)c3c(O)cc(O)cc3O[C@@H]2c2ccc(O)c(O)c2)[C@H](O)[C@H](O)[C@H]1O` [Astilbin], the “Results of 1st screen on AR” value in test [1] is “No effect”. The same measure, in the same setting: as for `COc1ccc2cc3n(c(=O)c2c1OC)CCc1cc2c(cc1-3)OCO2` [Berlambine], the entry is “No effect”; as for `C=C(C)[C@@H]1CC[C@]2(C(=O)O)CC[C@]3(C)[C@H](CC[C@@H]4[C@@]5(C)CC[C@H](O)C(C)(C)[C@@H]5CC[C@]43C)[C@@H]12` [Betulinic acid], “No effect”; as for `NCCC(O)C(=O)NC1CC(N)C(OC2OC(CN)C(O)[C@H](O)[C@@H]2N)[C@H](OC2O[C@H](CO)[C@@H](O)[C@@H]2O)[C@@H]1O.O=S(=O)(O)O.O=S(=O)(O)O` (stereo partly drawn) [Butirosin disulfate salt], “No effect”.

With `NC(N)=NOCC[C@H](N)C(=O)O.O.O=S(=O)(O)O` [Canavanine sulfate monohydrate (L,+)], the “Results of 1st screen on AR” value in test [1] is reported as “No effect”. On to `COc1cc(O)cc(O)c1C(=O)/C=C/c1ccccc1` [Cardamonin], for which, in test [1], the “Results of 1st screen on AR” value is on record as “No effect”. For the molecule `COc1c2c(cc3oc(CO)cc(=O)c13)O[C@H](C(C)(C)O)C2` [Cimifugin], the “Results of 1st screen on AR” value in test [1] is “No effect”. On the same count and under the same terms, for `C[C@H]1[C@H]2CC[C@H]3[C@@H]4CC=C5C[C@@H](N(C)C)CC[C@]5(C)[C@H]4CC[C@]23CN1C` [Conessine] the value was “No effect”; for `O=c1c(-c2ccc(O)cc2)coc2cc(O[C@@H]3O[C@H](CO)[C@@H](O)[C@H](O)[C@H]3O)cc(O)c12` [Genistin], “No effect”; for `CN(C)Cc1c[nH]c2ccccc12` [Gramine], “No effect”.

Consider `COc1ccc2c3c([nH]c2c1)C(C)=NCC3` [Harmaline hydrochloride dihydrate], for which the “Results of 1st screen on AR” value is “No effect” in test [1] and “inactive” in test [1] (listed as harmaline). `CC1=NCCc2c1[nH]c1cc(O)ccc21` [Harmalol hydrochloride dihydrate]: the results for the “Results of 1st screen on AR” value in test [1] and in test [1] (listed as harmalol) were “No effect” and “inactive”, respectively. On to `Cc1nccc2c1[nH]c1ccccc12` [Harmane hydrochloride], for which, in test [1], the “Results of confirmatory screen (validation of AR inhibition)” value (“Results … (validation of AR inhibition)” below) is reported as “Not confirmed” and the “Results of 1st screen on AR” value was “Inhibition”. For the same molecule, the “Results of 1st screen on AR” value in test [1] (listed as harmane) is on record as “active inhibitors of AR transcriptional activity”.

For `COc1ccc2c(c1)[nH]c1c(C)nccc12` [Harmine hydrochloride], in test [2], the “Effect on luciferase activity in control cells” value was “no effect”. In test [1], the “Results … (validation of AR inhibition)” value was “Confirmed” and the “Results of 1st screen on AR” value is on record as “Inhibition”. In addition, the “Nature of AR inhibition (competitive or non-competitive)” value in test [1] (1 nM versus 100 nM R1881) was “non-competitive manner”. In test [1] (listed as harmine), the “Results of 1st screen on AR” value is “active inhibitors of AR transcriptional activity” and the “Results … (validation of AR inhibition)” value is recorded as “could impair the transcriptional activity of AR”.

Turning to `COc1ccc([C@@H]2CC(=O)c3c(O)cc(O[C@@H]4O[C@H](CO[C@@H]5O[C@@H](C)[C@H](O)[C@@H](O)[C@H]5O)[C@@H](O)[C@H](O)[C@H]4O)cc3O2)cc1O` [Hesperidin], the “Results of 1st screen on AR” value in test [1] was “No effect”.

Turning to `Br.CC[C@H]1CN2CCC1C[C@H]2[C@H](O)c1ccnc2ccc(OC)cc12.O` (stereo partly drawn) [Hydroquinine hydrobromide hydrate], the “Results of 1st screen on AR” value in test [1] was “No effect”. Still for that read-out and setting: for `O=C1Nc2ccccc2/C1=C1/Nc2ccccc2C1=O` [Indirubin] the value was “No effect”; for `CC1=C2C(=O)[C@H]3[C@@H](CC=C4C[C@@H](O)CC[C@@]43C)[C@@H]2CC[C@]12O[C@@H]1C[C@H](C)CN[C@H]1[C@H]2C` [Jervine], “No effect”; for `O=C1CCC[C@@H]2[C@H]3CCCN4CCC[C@@H](CN12)[C@@H]34` [Matrine], “No effect”. Still for that read-out and setting: for `C=C(C)[C@@H]1[C@H]2OC(=O)[C@@H]1[C@]1(O)C[C@H]3O[C@]34C(=O)O[C@H]2[C@]14C` [Picrotoxinin] the value was “No effect”. On the same count and under the same terms, as for `CC[C@@H](C)C(=O)O[C@H]1[C@H](O)[C@H]2[C@@H](CN3C[C@@H](C)CC[C@H]3[C@@]2(C)O)[C@@H]2C[C@]34O[C@]5(O)[C@@H](OC(=O)[C@@](C)(O)CC)CC[C@@]3(C)[C@@H]5[C@@H](OC(C)=O)[C@@H](OC(C)=O)[C@H]4[C@@]21O` [Protoveratrine A], the entry is “No effect”. Consider `CN1[C@@H]2CCC[C@H]1CC(=O)C2.Cl` [Pseudopelletierine hydrochloride], for which, in test [1], the “Results of 1st screen on AR” value is recorded as “No effect”. The same measure, in the same setting: as for `O=c1c2ccccc2nc2n1CCc1c-2[nH]c2ccccc12` [Rutaecarpine], the entry is “No effect”. Same read-out and setting: as for `C[C@@H]1O[C@@H](OC[C@H]2O[C@@H](Oc3c(-c4ccc(O)c(O)c4)oc4cc(O)cc(O)c4c3=O)[C@H](O)[C@@H](O)[C@@H]2O)[C@H](O)[C@H](O)[C@H]1O` [Rutin], the entry is “No effect”; as for `OCc1ccccc1O[C@@H]1O[C@H](CO)[C@@H](O)[C@H](O)[C@H]1O` [Salicin], “No effect”; as for `C[C@@H]1NCCc2cc(O)c(O)cc21` [Salsolinol hydrobromide], “No effect”. Take `COc1ccc2c(OC)c3ccoc3nc2c1OC` [Skimmianine]: the “Results of 1st screen on AR” value in test [1] is “No effect”. `C[C@@H]1CC[C@@]2(NC1)O[C@H]1C[C@H]3[C@@H]4CC=C5C[C@@H](O)CC[C@]5(C)[C@H]4CC[C@]3(C)[C@H]1[C@@H]2C` [Solasodine]: the “Results of 1st screen on AR” value in test [1] was “No effect”. Same read-out and setting: as for `C[N+]1(C)CCC[C@H]1C(=O)[O-].Cl` [Stachydrine hydrochloride], the entry is “No effect”; as for `O=c1cc(-c2ccc(O)cc2)oc2c([C@@H]3O[C@H](CO)[C@@H](O)[C@H](O)[C@H]3O)c(O)cc(O)c12` [Vitexin], “No effect”; as for `C[C@]12CC[C@H](O)C[C@H]1CC[C@@H]1[C@@H]2CC[C@]2(C)[C@@H](C3=CC(=O)OC3)CC[C@]12O` [digitoxigenin], “active inhibitors of AR transcriptional activity”. Still for that read-out and setting: as for `C=CCc1ccc(O)c(-c2ccc(O)c(CC=C)c2)c1` [honokiol], the entry is “active inhibitors of AR transcriptional activity”. `COc1ccc2[nH]c3c(c2c1)CCN=C3C` [methoxy-6-harmalan]: in test [1], the “Results of 1st screen on AR” value is “inactive”. Same read-out and setting: for `CN1CCc2cc3c(c4c2C1Cc1ccccc1-4)OCO3` (stereo not drawn) [remerine] the value was “active inhibitors of AR transcriptional activity”.

Turning to Evodiamine, in test [1], the “Results of 1st screen on AR” value is given as “No effect”. Still for that read-out and setting: for Foliosidine the value was “No effect”; for Retrorsine, “No effect”; for strophantin, “active inhibitors of AR transcriptional activity”.
